From PubChem BioAssay AID2060504 (Molecular Pharmacology Branch, DTP, NCI, 2025)
Several values for one entry are separate records, joined by “and”; a condition that tells them apart may be missing. Equal entries are not always repeated. Values belong to the molecule of their own block, whether it stands above or below them.

System: 636577-100-R-J1-PDC complex spheroid viability
Assay: Anticancer human tumor 636577-100-R-J1-PDC patient-derived endometrial adenocarcinoma cell line growth inhibition [GQUAD]
Conditions: for viability, T/C: stronger effect = lower value
Source text: DNA G-quadruplex Stabilizer Agents in Combinations in Complex Spheroids
A high-throughput screen of multi-cell type tumor spheroids was designed to identify active combinations of DNA G-quadruplex stabilizer agents and targeted small molecules. Complex spheroids include a stromal component modeled by human endothelial cells (HUVEC) and fibroblasts modeled by human mesenchymal stem cells (MSCs). The concentration ranges selected for each drug and investigational agent were based upon clinically achievable concentrations if the clinical Cmax of the agent was known.
Compounds. The drugs and investigational agents: pidnarulex (CX-5461; NSC782164), APTO-253 (NSC789042), BRACO-19 (NSC847499), peposertib (NSC802822), ceralasertib (NSC780249), elimusertib (NSC800525), camonsertib (NSC841442), AZD-1390 (NSC803789), olaparib (NSC753686), talazoparib (NSC767125), ART-558 (NSC835418), sotorasib (NSC818433), MRTX-1133 (NSC836407), SN-38 (NSC673596), topotecan (NSC609699), etoposide (NSC141540), doxorubicin (NSC123127), gemcitabine (NSC613327), 5-fluorouracil (NSC19893), paclitaxel (NSC125973), vemurafenib (NSC761431), panobinostat (NSC761190), R-306465 (JNJ-16241199; NSC773264), adavosertib (NSC754352), TP-3654 (NSC805149), carboplatin (NSC241240), KSQ-4279 (NSC840948), and staurosporine (NSC755774) were obtained from the National Cancer Institute (NCI) Developmental Therapeutics Program Chemical Repository (34). The FDA-approved anticancer drug set is available from the NCI Developmental Therapeutics Program. […] The stock solutions were prepared in dimethyl sulfoxide (DMSO, Sigma-Aldrich, St. Louis, MO, cat. D2650) at 800-fold the tested concentration and stored at -70 degrees C prior to their use. All drugs and investigational agents were tested over a range starting from a high concentration at or near the clinical Cmax and decreasing in half-log increments. If the clinical Cmax for an agent had not been determined, the highest concentration tested was 10 microM.
2.3 Cell Culture. All cells were maintained in an incubator at 37 degrees C and 5% CO2 with 95% humidity. The PDC lines were cultured according to standard operating procedures established by the NCI PDMR. All PDCs were thawed and cultured in Matrigel-coated flasks prepared with a working solution of 1X Ham's F-12 nutrient mix, without supplementation (Invitrogen, cat. 11765054), 100 U/mL penicillin-streptomycin (Invitrogen, cat. 15140122), and 2.5% Matrigel (Corning Inc., cat. 354248) for the first three passages. The 857933-349-R-J2-PDC line was cultured in 6C/Colon 1B media, which includes advanced DMEM/F-12 (Thermo Fisher Scientific, cat. 12634028), 10 mM HEPES (Thermo Fisher Scientific, cat. 15630080), 1X GlutaMAX supplement (Thermo Fisher Scientific, cat. 35050061), 0.1 mg/mL primocin (InvivoGen, cat. ant-pm-2), 10% defined fetal bovine serum, heat inactivated (HyClone Laboratories Inc., cat. SH30070.03HI), 50% L-WRN conditioned media (ATCC, cat. CRL-3276), 1.25 mM N-Acetyl-L-cysteine (Sigma-Aldrich, cat. A9165), 10 mM nicotinamide (Sigma-Aldrich, cat. N0636), 1X B-27 supplement (Thermo Fisher Scientific, cat. 17504044), 1X N-2 supplement (Thermo Fisher Scientific, cat. 17502048), 10 microM Y-27632 dihydrochloride (Tocris Bioscience, cat. 1254), and 50 ng/mL human EGF recombinant protein (Thermo Fisher Scientific, cat. PHG0311). The 485176-168-R4-J1-PDC line was cultured in Panc media, which includes all 6C/Colon 1B media components plus 100 ng/mL human FGF-10 (Thermo Fisher Scientific, cat. 100-26), 500 nM SB-431542 (Selleckchem, cat. S1067), and gastrin (Tocris, cat. 3006).
[…]
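Note: viability read after seven days of drug exposure.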
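Throughout, for viability, T/C: luminescence signal used as a proxy for viable cells; 100% = DMSO vehicle control wells.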

- IC50 (curve of first compound, second compound 0.0316 µM): < 31.6 nM
- IC50 (curve of first compound, second compound 0.1 µM): < 31.6 nM
- IC50 (curve of first compound, second compound 0.316 µM): < 31.6 nM
- IC50 (curve of first compound, second compound 1 µM): < 31.6 nM
- IC50 (curve of first compound, second compound 3.16 µM): < 31.6 nM
- IC50 (curve of first compound, second compound 10 µM): < 31.6 nM
Compound: Nc1ccn(C2OC(CO)C(O)C2(F)F)c(=O)n1 (stereo not drawn) + Cc1cnc(CNC(=O)c2c(=O)c3ccc(N4CCCN(C)CC4)nc3n3c2sc2ccccc23)cn1
- viability, T/C (second compound 0.0316 µM, first compound 0.0316 µM): 15.9%
- viability, T/C (second compound 0.0316 µM, first compound 0.1 µM): 13.3%
- viability, T/C (second compound 0.0316 µM, first compound 0.316 µM): 15%
- viability, T/C (second compound 0.0316 µM, first compound 1 µM): 12.4%
- viability, T/C (second compound 0.0316 µM, first compound 3.16 µM): 13.6%
- viability, T/C (second compound 0.0316 µM, first compound 10 µM): 12.1%
- viability, T/C (second compound 0.1 µM, first compound 0.0316 µM): 17.9%
- viability, T/C (second compound 0.1 µM, first compound 0.1 µM): 13.8%
- viability, T/C (second compound 0.1 µM, first compound 0.316 µM): 16.3%
- viability, T/C (second compound 0.1 µM, first compound 1 µM): 13.3%
- viability, T/C (second compound 0.1 µM, first compound 3.16 µM): 16.2%
- viability, T/C (second compound 0.1 µM, first compound 10 µM): 14.6%
- viability, T/C (second compound 0.316 µM, first compound 0.0316 µM): 17.6%
- viability, T/C (second compound 0.316 µM, first compound 0.1 µM): 15.1%
- viability, T/C (second compound 0.316 µM, first compound 0.316 µM): 16.5%
- viability, T/C (second compound 0.316 µM, first compound 1 µM): 15.2%
- viability, T/C (second compound 0.316 µM, first compound 3.16 µM): 16.3%
- viability, T/C (second compound 0.316 µM, first compound 10 µM): 13.9%
- viability, T/C (second compound 1 µM, first compound 0.0316 µM): 14.7%
- viability, T/C (second compound 1 µM, first compound 0.1 µM): 14.8%
- viability, T/C (second compound 1 µM, first compound 0.316 µM): 16.6%
- viability, T/C (second compound 1 µM, first compound 1 µM): 17.5%
- viability, T/C (second compound 1 µM, first compound 3.16 µM): 16.6%
- viability, T/C (second compound 1 µM, first compound 10 µM): 15.3%
- viability, T/C (second compound 3.16 µM, first compound 0.0316 µM): 15.4%
- viability, T/C (second compound 3.16 µM, first compound 0.1 µM): 16.5%
- viability, T/C (second compound 3.16 µM, first compound 0.316 µM): 17.9%
- viability, T/C (second compound 3.16 µM, first compound 1 µM): 17.7%
- viability, T/C (second compound 3.16 µM, first compound 3.16 µM): 17.6%
- viability, T/C (second compound 3.16 µM, first compound 10 µM): 12.7%
- viability, T/C (second compound 10 µM, first compound 0.0316 µM): 18.2%
- viability, T/C (second compound 10 µM, first compound 0.1 µM): 13.8%
- viability, T/C (second compound 10 µM, first compound 0.316 µM): 18.1%
- viability, T/C (second compound 10 µM, first compound 1 µM): 16.4%
- viability, T/C (second compound 10 µM, first compound 3.16 µM): 16.3%
- viability, T/C (second compound 10 µM, first compound 10 µM): 13.5%

- IC50 (curve of compound): 83.4 nM and 55.7 nM and 74.1 nM
Compound: Cn1ncnc1[C@H]1c2n[nH]c(=O)c3cc(F)cc(c23)N[C@@H]1c1ccc(F)cc1
- viability, T/C (compound 0.000999 µM): 116% and 71.8% and 77.3%
- viability, T/C (compound 0.00316 µM): 99% and 81.1% and 72.7%
- viability, T/C (compound 0.00999 µM): 94.9% and 91.4% and 85.6%
- viability, T/C (compound 0.0316 µM): 69.3% and 56% and 68.8%
- viability, T/C (compound 0.0999 µM): 44.9% and 52.2% and 43.4%
- viability, T/C (compound 0.316 µM): 29.7% and 35.6% and 29.1%

- IC50 (curve of compound): > 10000 nM
Compound: COc1ncnc(C2CC2)c1-c1ncc2cnn(Cc3ccc(-c4nc(C(F)(F)F)cn4C(C)C)cc3)c2n1
- viability, T/C (compound 0.0316 µM): 72.1% and 66.5% and 79.3%
- viability, T/C (compound 0.1 µM): 70% and 60.2% and 82.1%
- viability, T/C (compound 0.316 µM): 54.8% and 66.5% and 102%
- viability, T/C (compound 1 µM): 72.7% and 57.8% and 88.1%
- viability, T/C (compound 3.16 µM): 64.7% and 64.6% and 68%
- viability, T/C (compound 10 µM): 59.5% and 68.5% and 65.4%

- IC50 (curve of compound): < 31.6 nM
Compound: CC(=O)O[C@H]1C(=O)[C@@]2(C)[C@H]([C@H](OC(=O)c3ccccc3)[C@]3(O)C[C@H](OC(=O)[C@H](O)[C@@H](NC(=O)c4ccccc4)c4ccccc4)C(C)=C1C3(C)C)[C@]1(OC(C)=O)CO[C@@H]1C[C@@H]2O
- viability, T/C (compound 0.0316 µM): 17.6% and 17.3% and 20.3%
- viability, T/C (compound 0.1 µM): 14% and 14.4% and 13.2%
- viability, T/C (compound 0.316 µM): 12.3% and 12.7% and 10.3%
- viability, T/C (compound 1 µM): 12.2% and 12% and 10%
- viability, T/C (compound 3.16 µM): 9.72% and 10.1% and 7.81%
- viability, T/C (compound 10 µM): 9.54% and 9.71% and 8.27%
